# Target: T1, human MCH-1R (Homo sapiens, UniProt Q99705)
# T1 construct: expressed in transfected cells; host or cells: CHO-K1 (American Type Culture Collection), vector pEF/myc/cyto (Invitrogen)
# Test: MCH binding inhibition test
# Conditions: membrane samples from MCH-1R expressing CHO-K1 cells, 50 pM [125I]MCH, 25° C., one hour, pH 7.4; read-out: IC50 (50% inhibition concentration of test compound to the specific [125I]MCH binding)
# Method: A human MCH-1R encoding cDNA sequence [FEBS Letters, Vol. 398, 253 (1996); Biochimica et Biophisica Acta, Vol. 1401, 216 (1998)] was cloned to a plasmid vector pEF/myc/cyto (Invitrogen Corporation). The obtained expression vector was transfected to host cells CHO-K1 (American Type Culture Collection) using Lipofectamine Plus Reagent (Life Technology Inc.) to provide MCH-1R expression cells.
# Membrane samples prepared from the MCH-1R expression cells were incubated with each test compound and 50 pM of [^125I]MCH (NEN Co.), in an assay buffer (50 mM Tris buffer comprising 10 mM magnesium chloride, 2 mM ethylenediamine tetraacetate, 0.01% bacitracin and 0.2% bovine serum albumin; pH 7.4) at 25° C. for an hour, followed by filtration through a glass filter GF/C (Wattman Co.). After washing the glass filter with 50 mM Tris buffer (pH 7.4) comprising 10 mM magnesium chloride, 2 mM ethylenediamine tetraacetate and 0.04% Tween-20, the radioactive activity on the glass filter was measured. The non-specific binding was measured in the presence of 1 μM human MCH and 50% inhibition concentration (IC50 value) of each test compound to the specific [^125I]MCH binding was determined.
# T1 sequence (Q99705 whole entry): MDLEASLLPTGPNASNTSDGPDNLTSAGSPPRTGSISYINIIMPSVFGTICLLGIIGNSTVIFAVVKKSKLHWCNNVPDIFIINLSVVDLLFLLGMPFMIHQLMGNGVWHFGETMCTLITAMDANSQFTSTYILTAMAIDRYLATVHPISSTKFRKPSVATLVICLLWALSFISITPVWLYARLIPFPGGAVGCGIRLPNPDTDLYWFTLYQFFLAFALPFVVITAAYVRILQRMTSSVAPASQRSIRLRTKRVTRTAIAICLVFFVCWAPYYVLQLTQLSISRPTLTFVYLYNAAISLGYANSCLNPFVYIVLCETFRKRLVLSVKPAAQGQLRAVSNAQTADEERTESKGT
row,IC50,Compound
1,5.9 nM,"CCN(CC)Cc1ccc(CCn2ccc(OCc3ccc(F)cc3)cc2=O)cc1 [Example 2, 1-(2-{4-[(Diethylamino)methyl]phenyl}ethyl)-4-[(4-fluorobenzyl)oxy]pyridin-2(1H)one]"
2,2.6 nM,"CCCNCc1ccc(CCn2ccc(OCc3ccc(F)cc3)cc2=O)cc1 [Example 72, 4-[(4-Fluorobenzyl)oxy]-1-(2-{4-[(propylamino)methyl]phenyl}ethyl)pyridin-2(1H)-one]"

# The remaining lines, values behind:
row,Compound,IC50
1,"CCN(CC)Cc1ccc(CCn2ccc(OCc3ccc(Cl)cn3)cc2=O)cc1 [Example 14, 4-[(5-Chloropyridin-2-yl)methoxy]-1-(2-{4-[(diethylamino)methyl]phenyl}ethyl)pyridin-2(1H)-one]",7.3 nM
2,"O=c1cc(OCc2ccc(Cl)cn2)ccn1CCc1ccc(CN2CCCC2)cc1 [Example 26, 4-[(5-Chloropyridin-2-yl)methoxy]-1-(2-[4-(pyrrolidin-1-ylmethyl)phenyl]ethyl}pyridin-2(1H)-one]",5.8 nM
3,"O=c1cc(OCc2ccc(Cl)cc2)ccn1CCc1ccc(CN2C3CCC2CC3)cc1 [Example 41, 1-{2-[4-(7-Azabicyclo[2.2.1]hept-7-ylmethyl)phenyl]ethyl}-4-[(4-chlorobenzyl)oxy]pyridin-2(1H)-one]",3 nM

# Source: patent US20100216758A1, “Pyridone Compounds” (priority 2005, published 2010)
